US20190047966A1, “NOVEL COMPOUND AND PHARMACOLOGICALLY ACCEPTABLE SALT THEREOF” (MEIJI SEIKA PHARMA CO., LTD., priority 2016, published 2019)
pKi: −log10 of the molar value. Counter-ions that a name gives are not always drawn.

Experiments:
[1] = target: human histamine H1 receptor (Homo sapiens, UniProt P35367); assay: Evaluation of Human H1 Receptor Affinity ([3H]pyrilamine binding); design: purchased PerkinElmer Inc; host or cells: CHO-K1; conditions: inhibition constant Ki, CHO-K1 membrane preparation
Chain of human histamine H1 receptor (P35367 whole entry): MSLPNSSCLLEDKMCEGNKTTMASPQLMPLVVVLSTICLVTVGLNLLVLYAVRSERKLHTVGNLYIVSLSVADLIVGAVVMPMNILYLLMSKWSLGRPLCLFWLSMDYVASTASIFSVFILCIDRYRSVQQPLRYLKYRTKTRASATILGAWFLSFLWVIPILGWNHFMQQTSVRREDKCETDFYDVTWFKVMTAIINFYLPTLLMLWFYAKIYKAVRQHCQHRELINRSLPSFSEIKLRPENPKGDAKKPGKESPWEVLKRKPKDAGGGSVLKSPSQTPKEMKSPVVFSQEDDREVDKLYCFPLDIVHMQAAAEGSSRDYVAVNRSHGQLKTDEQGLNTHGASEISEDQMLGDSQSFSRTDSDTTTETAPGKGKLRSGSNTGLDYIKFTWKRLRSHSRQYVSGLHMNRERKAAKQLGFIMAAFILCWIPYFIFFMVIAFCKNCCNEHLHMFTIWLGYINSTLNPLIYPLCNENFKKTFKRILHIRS
Protocol: Test Example 1: Evaluation of Human H1 Receptor Affinity
Membrane preparation from recombinant CHO-K1 cell expressing the human histamine H1 receptor (PerkinElmer Inc.), radiolabeled ligand 1.2 nM [^3H]pyrilamine (PerkinElmer Inc.), and test compounds dissolved in DMSO were reacted at 25° C. for 3 hours in a buffering solution containing 50 mM tris-hydrochloric acid, pH 7.4, and 5 mM magnesium chloride on a 96 well plate, followed by filtration using a GF/B filter (PerkinElmer Inc.) pretreated with 0.3% polyethylenimine. The residue was washed four times with a buffering solution of 50 mM tris-hydrochloric acid, pH 7.4. Thereafter, a scintillation cocktail (MicroScint 20: PerkinElmer Inc.) was added to the GF/B filter, and the radioactivity of each well was measured using a liquid scintillation counter for 96-well (TopCount: PerkinElmer Inc.). The non-specific binding was evaluated in the presence of 1.0 μM pyrilamine. The inhibition constant Ki was calculated from the 50% inhibitory concentration (IC50 value) obtained in each test and the Kd value (1.1 nM) unique to this assay system, according to the Cheng-Prusoff equation.

[2] = target: T1, human histamine H4 receptor (Homo sapiens, UniProt Q9H3N8); assay: Evaluation of Human H4 Receptor Affinity ([3H]histamine binding); conditions: inhibition constant Ki, CHO-K1 membrane preparation, read-out: Evaluation of H4 Receptor Affinity
T1 construct: purchased PerkinElmer Inc; host or cells: CHO-K1
T1 sequence (Q9H3N8 whole entry): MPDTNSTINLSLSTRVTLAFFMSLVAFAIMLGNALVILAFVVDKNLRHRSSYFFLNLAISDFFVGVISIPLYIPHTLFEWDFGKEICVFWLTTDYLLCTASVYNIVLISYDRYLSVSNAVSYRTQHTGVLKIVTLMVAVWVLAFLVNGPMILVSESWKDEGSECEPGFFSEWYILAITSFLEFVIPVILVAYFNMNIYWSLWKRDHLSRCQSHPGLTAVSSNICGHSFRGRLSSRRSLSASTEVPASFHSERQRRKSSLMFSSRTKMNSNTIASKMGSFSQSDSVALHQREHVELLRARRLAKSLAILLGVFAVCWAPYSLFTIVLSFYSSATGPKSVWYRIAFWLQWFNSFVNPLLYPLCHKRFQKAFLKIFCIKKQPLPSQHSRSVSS
Protocol: Test Example 2: Evaluation of Human H4 Receptor Affinity
Membrane preparation from recombinant CHO-K1 cell expressing the human histamine H4 receptor (PerkinElmer Inc.), radiolabeled ligand 8.2 nM [^3H]histamine (PerkinElmer Inc.), and compounds dissolved in DMSO were reacted at 25° C. for 90 minutes in a buffering solution containing 50 mM tris-hydrochloric acid, pH 7.4, and 1.25 mM EDTA on a 96 well plate, followed by filtration using a GF/B filter (PerkinElmer Inc.) pretreated with 0.3% polyethylenimine. The residue was washed four times with a buffering solution of 50 mM tris-hydrochloric acid, pH 7.4. Thereafter, a scintillation cocktail (MicroScint 20: PerkinElmer Inc.) was added to the GF/B filter, and the radioactivity of each well was measured using a liquid scintillation counter for 96-well (TopCount: PerkinElmer Inc.). The non-specific binding was evaluated in the presence of 1.0 μM histamine. The inhibition constant Ki was calculated from the 50% inhibitory concentration (IC50 value) obtained in each test and the Kd value (5.7 nM) unique to this assay system, according to the Cheng-Prusoff equation.

Compound	pKi [1]	pKi [2]
COC(=O)c1cccc(COCCN2CCN(c3nc(N)nc4c3CCc3cc(OCc5ccc(Cl)cc5)ccc3-4)CC2)c1 [15(a), methyl 3-((2-(4-(2-amino-8-((4-chlorobenzyl)oxy)-5,6-dihydrobenzo[h]quinazolin-4-yl)piperazin-1-yl)ethoxy)methyl)benzoate]	> 7.00	6.30 to 7.00
COC(=O)c1cccc(COCCN2CCN(c3nc(N)nc4c3CCc3cc(OCc5ccc(OC(F)(F)F)cc5)ccc3-4)CC2)c1 [16(a), methyl 3-((2-(4-(2-amino-8-((4-(trifluoromethoxy)benzyl)oxy)-5,6-dihydrobenzo[h]quinazolin-4-yl)piperazin-1-yl)ethoxy)methyl)benzoate]	> 7.00	6.30 to 7.00
COC(=O)c1cc(COCCN2CCN(c3nc(N)nc4c3CCc3cc(OCc5ccc(Cl)cc5)ccc3-4)CC2)ccc1F [17(a), methyl 5-((2-(4-(2-amino-8-((4-chlorobenzyl)oxy)-5,6-dihydrobenzo[h]quinazolin-4-yl)piperazin-1-yl)ethoxy)methyl)-2-fluorobenzoate]	> 7.00	> 7.00
COC(=O)c1cccc(COCCN2CCN(c3nc(N)nc4c3CCc3cc(OCc5ccc(Cl)cc5)ccc3-4)CC2)n1 [18(a), methyl 6-((2-(4-(2-amino-8-((4-chlorobenzyl)oxy)-5,6-dihydrobenzo[h]quinazolin-4-yl)piperazin-1-yl)ethoxy)methyl)picolinate]	> 7.00	> 7.00
COC(=O)c1ccc(OCCN2CCN(c3nc(N)nc4c3CCc3cc(OCc5ccc(Cl)cc5)ccc3-4)CC2)cc1 [19(a), methyl 4-(2-(4-(2-amino-8-((4-chlorobenzyl)oxy)-5,6-dihydrobenzo[h]quinazolin-4-yl)piperazin-1-yl)ethoxy)benzoate]	6.30 to 7.00	6.30 to 7.00
COC(=O)c1ccc(COCCN2CCN(c3nc(N)nc4c3CCc3cc(OCc5ccc(OC(F)(F)F)cc5)ccc3-4)CC2)o1 [20(a), methyl 5-((2-(4-(2-amino-8-((4-(trifluoromethoxy)benzyl)oxy)-5,6-dihydrobenzo[h]quinazolin-4-yl)piperazin-1-yl)ethoxy)methyl)furan-2-carboxylate]	> 7.00	6.30 to 7.00
CCOC(=O)[C@]1(C)C[C@@H](OCCN2CCN(c3nc(N)nc4c3CCc3cc(OCc5ccc(Cl)cc5)ccc3-4)CC2)C1 [25(a), ethyl trans-3-(2-(4-(2-amino-8-((4-chlorobenzyl)oxy)-5,6-dihydrobenzo[h]quinazolin-4-yl)piperazin-1-yl)ethoxy)-1-methylcyclobutane-1-carboxylate]	> 7.00	6.30 to 7.00
C[C@]1(C(=O)O)C[C@H](OCCN2CCN(c3nc(N)nc4c3CCc3cc(OCc5ccc(Cl)cc5)ccc3-4)CC2)C1 [25(b), trans-3-(2-(4-(2-amino-8-((4-chlorobenzyl)oxy)-5,6-dihydrobenzo[h]quinazolin-4-yl)piperazin-1-yl)ethoxy)-1-methylcyclobutane-1-carboxylic acid]	> 7.00	> 7.00
CCOC(=O)[C@]1(C)C[C@H](OCCN2CCN(c3nc(N)nc4c3CCc3cc(OCc5ccc(Cl)cc5)ccc3-4)CC2)C1 [26(a), ethyl cis-3-(2-(4-(2-amino-8-((4-chlorobenzyl)oxy)-5,6-dihydrobenzo[h]quinazolin-4-yl)piperazin-1-yl)ethoxy)-1-methylcyclobutane-1-carboxylate]	> 7.00	6.30 to 7.00
C[C@]1(C(=O)O)C[C@@H](OCCN2CCN(c3nc(N)nc4c3CCc3cc(OCc5ccc(Cl)cc5)ccc3-4)CC2)C1 [26(b), cis-3-(2-(4-(2-amino-8-((4-chlorobenzyl)oxy)-5,6-dihydrobenzo[h]quinazolin-4-yl)piperazin-1-yl)ethoxy)-1-methylcyclobutane-1-carboxylic acid]	> 7.00	6.30 to 7.00
Nc1nc2c(c(N3CCN(CCOCC4CNC4)CC3)n1)CCc1cc(OCc3ccc(OC(F)(F)F)cc3)ccc1-2 [38(b), 4-(4-(2-(azetidin-3-ylmethoxy)ethyl)piperazin-1-yl)-8-((4-(trifluoromethoxy)benzyl)oxy)-5,6-dihydrobenzo[h]quinazolin-2-amine]	> 7.00	> 7.00
COC(=O)c1ccc(COCCN2CCN(c3nc(N)nc4c3CCc3cc(OCc5ccc(Cl)cc5)ccc3-4)CC2)o1 [127(a), methyl 5-((2-(4-(2-amino-8-((4-chlorobenzyl)oxy)-5,6-dihydrobenzo[h]quinazolin-4-yl)piperazin-1-yl)ethoxy)methyl)furan-2-carboxylate]	> 7.00	> 7.00
COC(=O)c1ccc(COCCN2CCN(c3nc(N)nc4c3CCc3cc(OCc5ccc(Cl)cc5)ccc3-4)CC2)cc1 [128(a), methyl 4-((2-(4-(2-amino-8-((4-chlorobenzyl)oxy)-5,6-dihydrobenzo[h]quinazolin-4-yl)piperazin-1-yl)ethoxy)methyl)benzoate]	> 7.00	6.30 to 7.00
Nc1nc2c(c(N3CCN(CCOCc4ccc(C(=O)O)cc4)CC3)n1)CCc1cc(OCc3ccc(Cl)cc3)ccc1-2 [128(b), 4-((2-(4-(2-amino-8-((4-chlorobenzyl)oxy)-5,6-dihydrobenzo[h]quinazolin-4-yl)piperazin-1-yl)ethoxy)methyl)benzoic acid]	> 7.00	> 7.00
COC(=O)c1ccc(F)c(COCCN2CCN(c3nc(N)nc4c3CCc3cc(OCc5ccc(Cl)cc5)ccc3-4)CC2)c1 [129(a), methyl 3-((2-(4-(2-amino-8-((4-chlorobenzyl)oxy)-5,6-dihydrobenzo[h]quinazolin-4-yl)piperazin-1-yl)ethoxy)methyl)-4-fluorobenzoate]	> 7.00	6.30 to 7.00
COC(=O)c1cccc(OCCCN2CCN(c3nc(N)nc4c3CCc3cc(OCc5ccc(Cl)cc5)ccc3-4)CC2)c1 [131(a), methyl 3-(3-(4-(2-amino-8-((4-chlorobenzyl)oxy)-5,6-dihydrobenzo[h]quinazolin-4-yl)piperazin-1-yl)propoxy)benzoate]	> 7.00	6.30 to 7.00
Nc1nc2c(c(N3CCN(CCCOc4cccc(C(=O)O)c4)CC3)n1)CCc1cc(OCc3ccc(Cl)cc3)ccc1-2 [131(b), 3-(3-(4-(2-amino-8-((4-chlorobenzyl)oxy)-5,6-dihydrobenzo[h]quinazolin-4-yl)piperazin-1-yl)propoxy)benzoic acid]	> 7.00	6.30 to 7.00
CCOC(=O)c1csc(COCCN2CCN(c3nc(N)nc4c3CCc3cc(OCc5ccc(Cl)cc5)ccc3-4)CC2)n1 [135(a), ethyl 2-((2-(4-(2-amino-8-((4-chlorobenzyl)oxy)-5,6-dihydrobenzo[h]quinazolin-4-yl)piperazin-1-yl)ethoxy)methyl)thiazole-4-carboxylate]	> 7.00	> 7.00
Nc1nc2c(c(N3CCN(CCOCc4nc(C(=O)O)cs4)CC3)n1)CCc1cc(OCc3ccc(Cl)cc3)ccc1-2 [135(b), 2-((2-(4-(2-amino-8-((4-chlorobenzyl)oxy)-5,6-dihydrobenzo[h]quinazolin-4-yl)piperazin-1-yl)ethoxy)methyl)thiazole-4-carboxylic acid dihydrochloride]	> 7.00	> 7.00
CCOC(=O)C1(C#N)CCC(COCCN2CCN(c3nc(N)nc4c3CCc3cc(OCc5ccc(Cl)cc5)ccc3-4)CC2)CC1 (stereo not drawn) [159(a), ethyl cis- or trans-4-((2-(4-(2-amino-8-((4-chlorobenzyl)oxy)-5,6-dihydrobenzo[h]quinazolin-4-yl)piperazin-1-yl)ethoxy)methyl)-1-cyanocyclohexane-1-carboxylate]	> 7.00	6.30 to 7.00
N#CC1(C(=O)O)CCC(COCCN2CCN(c3nc(N)nc4c3CCc3cc(OCc5ccc(Cl)cc5)ccc3-4)CC2)CC1 (stereo not drawn) [159(b), cis- or trans-4-((2-(4-(2-amino-8-((4-chlorobenzyl)oxy)-5,6-dihydrobenzo[h]quinazolin-4-yl)piperazin-1-yl)ethoxy)methyl)-1-cyanocyclohexane-1-carboxylic acid hydrochloride]	> 7.00	> 7.00
CCOC(=O)C1(C#N)CCC(COCCN2CCN(c3nc(N)nc4c3CCc3cc(OCc5ccc(Cl)cc5)ccc3-4)CC2)CC1 (stereo not drawn) [160(a), ethyl trans- or cis-4-((2-(4-(2-amino-8-((4-chlorobenzyl)oxy)-5,6-dihydrobenzo[h]quinazolin-4-yl)piperazin-1-yl)ethoxy)methyl)-1-cyanocyclohexane-1-carboxylate]	> 7.00	6.30 to 7.00
